Experimental data as given in PubChem BioAssay (NCI).
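GI50: concentration for 50% inhibition of growth. TGI: total growth inhibition.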

What was measured:
Assay in all cases: NCI-60 cell line screen, 384-well format
NCI-H460 NSCLC = test system: NCI-H460 NSCLC
KM12 colon = test system: KM12 colon
DU-145 prostate = test system: DU-145 prostate
M14 melanoma = test system: M14 melanoma
HS 578T breast = test system: HS 578T breast
SK-MEL-5 melanoma = test system: SK-MEL-5 melanoma
MDA-MB-468 breast = test system: MDA-MB-468 breast
TK-10 renal = test system: TK-10 renal
MCF7 breast = test system: MCF7 breast
HL-60(TB) leukemia = test system: HL-60(TB) leukemia
MOLT-4 leukemia = test system: MOLT-4 leukemia
SW-620 colon = test system: SW-620 colon
NCI-H23 lung = test system: NCI-H23 lung
SR leukemia = test system: SR leukemia
COLO 205 colon = test system: COLO 205 colon
NCI-H522 lung = test system: NCI-H522 lung
CCRF-CEM leukemia = test system: CCRF-CEM leukemia
SN12C renal = test system: SN12C renal
A549 NSCLC = test system: A549 NSCLC
MALME-3M melanoma = test system: MALME-3M melanoma
SNB-19 CNS = test system: SNB-19 CNS
RPMI-8226 leukemia = test system: RPMI-8226 leukemia

`C[C@@H](CN1CC(=O)NC(=O)C1)N1CC(=O)NC(=O)C1` gave a GI50 (NCI-H460 NSCLC) of 19.7 µM, a GI50 (KM12 colon) of 91.7 µM and a GI50 (DU-145 prostate) of 52.4 µM. The GI50 (M14 melanoma) was 55.7 µM, the GI50 (HS 578T breast) was 21.2 µM and the GI50 (SK-MEL-5 melanoma) was 74.8 µM. It also gave a GI50 (MDA-MB-468 breast) of 29.1 µM, a TGI (MDA-MB-468 breast) of 57.9 µM and a GI50 (TK-10 renal) of 68 µM. The GI50 (MCF7 breast) was 77.7 µM, the GI50 (HL-60(TB) leukemia) was 4.32 µM and the TGI (HL-60(TB) leukemia) was 18.4 µM. It also gave a GI50 (MOLT-4 leukemia) of 5.07 µM, a TGI (MOLT-4 leukemia) of 17.2 µM and a GI50 (SW-620 colon) of 83.4 µM. It also gave a GI50 (NCI-H23 lung) of 71.8 µM, a GI50 (SR leukemia) of 2.15 µM and a TGI (SR leukemia) of 4.68 µM. It also gave a GI50 (COLO 205 colon) of 10.6 µM, a TGI (COLO 205 colon) of 27.8 µM and a GI50 (NCI-H522 lung) of 53.9 µM. The GI50 (CCRF-CEM leukemia) was 13.7 µM, the TGI (CCRF-CEM leukemia) was 29.4 µM and the GI50 (SN12C renal) was 74.4 µM. The GI50 (A549 NSCLC) was 10.1 µM, the GI50 (MALME-3M melanoma) was 34.6 µM and the GI50 (SNB-19 CNS) was 96.1 µM. For the same molecule, the GI50 (RPMI-8226 leukemia) was 3.65 µM and the TGI (RPMI-8226 leukemia) was 19.7 µM.
